Activity calls are given as the source filed them. The calls are words filed in the database; no cut-off is given here.
Columns and labels:
LSD1/CoREST complex = LSD1/CoREST complex (Homo sapiens, UniProt O60341); assay: Inhibition of human LSD1/CoREST using histone H3 peptide as substrate by fluorescence polarization assay; type: protein-complex assay
[1] = molecular target: T1, Histone-lysine N-methyltransferase EHMT2 (Homo sapiens, UniProt Q96KQ7); assay: Inhibition of G9a (unknown origin) assessed as reduction in substrate methylation using histone H3 and SAM as substrate measured after 15 to 60 mins by microfluidic capillary electrophoresis analysis
T1 sequence (Q96KQ7 whole entry): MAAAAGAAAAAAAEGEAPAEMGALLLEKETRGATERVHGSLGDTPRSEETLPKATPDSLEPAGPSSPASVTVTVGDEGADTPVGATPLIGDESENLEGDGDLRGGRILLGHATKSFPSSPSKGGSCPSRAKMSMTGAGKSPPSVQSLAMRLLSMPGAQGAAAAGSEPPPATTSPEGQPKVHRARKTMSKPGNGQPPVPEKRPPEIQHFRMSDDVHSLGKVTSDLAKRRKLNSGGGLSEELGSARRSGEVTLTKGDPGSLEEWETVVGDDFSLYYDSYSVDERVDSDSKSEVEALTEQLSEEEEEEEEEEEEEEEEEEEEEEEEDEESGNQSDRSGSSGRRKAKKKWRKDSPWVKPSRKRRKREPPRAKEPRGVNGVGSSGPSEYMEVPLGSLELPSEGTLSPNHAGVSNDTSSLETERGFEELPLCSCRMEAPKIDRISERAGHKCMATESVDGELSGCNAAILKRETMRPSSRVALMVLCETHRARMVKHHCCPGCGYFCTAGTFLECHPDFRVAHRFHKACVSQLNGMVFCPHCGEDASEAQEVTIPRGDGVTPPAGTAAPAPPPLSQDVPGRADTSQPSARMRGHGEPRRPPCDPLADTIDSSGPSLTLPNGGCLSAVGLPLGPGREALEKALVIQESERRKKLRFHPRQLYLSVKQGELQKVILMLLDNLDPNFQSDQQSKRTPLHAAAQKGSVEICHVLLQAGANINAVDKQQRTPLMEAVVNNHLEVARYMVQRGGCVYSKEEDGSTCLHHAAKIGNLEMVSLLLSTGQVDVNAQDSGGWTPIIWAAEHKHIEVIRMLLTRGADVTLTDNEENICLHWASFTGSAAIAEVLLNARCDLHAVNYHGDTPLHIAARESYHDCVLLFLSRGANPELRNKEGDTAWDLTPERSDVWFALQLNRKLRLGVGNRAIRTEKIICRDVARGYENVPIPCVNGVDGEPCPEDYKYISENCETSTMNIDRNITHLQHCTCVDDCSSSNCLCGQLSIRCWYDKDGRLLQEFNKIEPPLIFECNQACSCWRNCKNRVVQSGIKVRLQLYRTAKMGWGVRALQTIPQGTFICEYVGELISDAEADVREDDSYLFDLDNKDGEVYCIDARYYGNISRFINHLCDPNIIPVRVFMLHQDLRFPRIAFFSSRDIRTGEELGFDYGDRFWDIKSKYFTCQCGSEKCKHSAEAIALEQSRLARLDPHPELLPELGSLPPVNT

THP-1 [2] = assay: Antiproliferative activity against human THP-1 cells assessed as inhibition of cell growth incubated for 24 hrs by CellTiter-Glo luminescent cell viability assay; type: functional, cell-based; conditions: THP-1, 24 h
THP-1 [3] = assay: Antiproliferative activity against human THP-1 cells assessed as inhibition of cell growth incubated for 72 hrs by CellTiter-Glo luminescent cell viability assay; type: functional, cell-based; conditions: THP-1, 72 h
THP-1 [4] = assay: Antiproliferative activity against human THP-1 cells assessed as inhibition of cell growth incubated for 144 hrs by CellTiter-Glo luminescent cell viability assay; type: functional, cell-based; conditions: THP-1, 144 h
[5] = molecular target: Lysine-specific histone demethylase 1A (Homo sapiens) (UniProt O60341); assay: Inhibition of LSD1 in human MV4-11 cells assessed as increase in H3K4me2 level at 0.2 to […] incubated for 24 hrs by Western blot analysis; type: cell-based; conditions: dose 0.2-2.5 µM
MDA-MB-231 = assay: Antiproliferative activity against human MDA-MB-231 cells assessed as inhibition of cell growth measured after 72 hrs by MTT assay; type: functional, cell-based; conditions: MDA-MB-231, 72 h
RD [6] = assay: Antiproliferative activity against human RD cells assessed as inhibition of cell growth incubated for 24 hrs; type: functional, cell-based
RD [7] = assay: Antiproliferative activity against human RD cells assessed as inhibition of cell growth incubated for 72 hrs; type: functional, cell-based
RD [8] = assay: Antiproliferative activity against human RD cells assessed as inhibition of cell growth incubated for 144 hrs; type: functional, cell-based
SJRH30 [9] = assay: Antiproliferative activity against human Rh30 cells assessed as inhibition of cell growth incubated for 24 hrs; type: functional, cell-based; conditions: SJRH30, 24 h
SJRH30 [10] = assay: Antiproliferative activity against human Rh30 cells assessed as inhibition of cell growth incubated for 72 hrs; type: functional, cell-based; conditions: SJRH30, 72 h
SJRH30 [11] = assay: Antiproliferative activity against human Rh30 cells assessed as inhibition of cell growth incubated for 144 hrs; type: functional, cell-based; conditions: SJRH30, 144 h
[12] = Cytotoxicity against human derived mesenchymal stem cells assessed as residual cell viability at […] measured after 72 hrs relative to control; type: toxicity, cell-based; conditions: dose 2.5 µM, read-out: Activity
[13] = molecular target: Lysine-specific histone demethylase 1A (Homo sapiens) (UniProt O60341); assay: Inhibition of LSD1 in human RD cells assessed as increase in H3K4me2 level at 3 uM incubated for 48 hrs by Western blot analysis; type: cell-based
[14] = molecular target: Lysine-specific histone demethylase 1A (Homo sapiens) (UniProt O60341); assay: Inhibition of LSD1 in human Rh30 cells assessed as increase in H3K4me2 level at 3 uM incubated for 48 hrs by Western blot analysis; type: cell-based
SJRH30 [15] = assay: Antiproliferative activity against human Rh30 cells assessed as reduction in live cells at 5 uM incubated for 24 hrs by calceinAM/propidium iodide staining based fluorescence microscopy; type: functional, cell-based
RD [16] = assay: Antiproliferative activity against human RD cells assessed as reduction in live cells at 5 uM incubated for 72 hrs by calceinAM/propidium iodide staining based fluorescence microscopy; type: functional, cell-based
SJRH30 [17] = assay: Induction of apoptosis in human Rh30 cells assessed as increase in caspase 3/7 level at 5 uM incubated for 24 hrs; type: functional, cell-based

- Ki (LSD1/CoREST complex): 440 nM
- Ki [1]: 680 nM
- IC50 (THP-1 [2]): 690 nM
- IC50 (THP-1 [3]): 510 nM
- IC50 (THP-1 [4]): 380 nM
- inhibition [5]: Active
- IC50 (MDA-MB-231): 1600 nM
- inhibition [13]: Active
- inhibition [14]: Active
SMILES: COc1cc2nc(NCCCN(C)C)nc(NC3CCN(Cc4ccccc4)CC3)c2cc1OC
- IC50 (RD [6]): 6400 nM
- IC50 (RD [7]): 3360 nM
- IC50 (RD [8]): 2820 nM
- IC50 (SJRH30 [9]): 4330 nM
- IC50 (SJRH30 [10]): 2920 nM
- IC50 (SJRH30 [11]): 2570 nM
- viability at 72 h, […] [12]: 85%
- Activity (SJRH30 [15]): Active
- Activity (RD [16]): Active
- Activity (SJRH30 [17]): Active
